Data as given in patent publication US11498899B2, “Nitrone herbicides” (FMC Corporation, priority 2016, dated 2022).

Assays:
[1] = test system: ducksalad (Heteranthera limosa); experiment: Test B flooded paddy test, visual rating 0-100; details: Flood, 250 g ai/ha, applied to paddy water, rated after 13 to 15 days
[2] = test system: rice (Oryza sativa); experiment: Test B flooded paddy test, visual rating 0-100 (0 no effect, 100 complete control); details: Flood, 250 g ai/ha, applied to paddy water, rated after 13 to 15 days
[3] = test system: barnyardgrass (Echinochloa crus-galli); experiment: Test B flooded paddy test, visual rating 0-100; details: Flood, 250 g ai/ha, applied to paddy water, rated after 13 to 15 days
[4] = test system: kochia (Kochia scoparia); experiment: Test A postemergence, visual injury rating 0-100; format: in vivo; details: 0 to 100 scale
[5] = test system: corn (Zea mays); experiment: Test A postemergence, visual injury rating 0-100; format: in vivo; details: 0 to 100 scale
[6] = test system: galium (catchweed bedstraw, Galium aparine); experiment: Test A postemergence, visual injury rating 0-100; format: in vivo; details: 0 to 100 scale
[7] = test system: blackgrass (Alopecurus myosuroides); experiment: Test A postemergence, visual injury rating 0-100; format: in vivo; details: 0 to 100 scale
[8] = test system: pigweed (Amaranthus retroflexus); experiment: Test A postemergence, visual injury rating 0-100; format: in vivo; details: 0 to 100 scale
[9] = test system: ryegrass, Italian (Italian ryegrass, Lolium multiflorum); experiment: Test A postemergence, visual injury rating 0-100; format: in vivo; details: 0 to 100 scale
[10] = test system: foxtail, giant (giant foxtail, Setaria faberii); experiment: Test A postemergence, visual injury rating 0-100; format: in vivo; details: 0 to 100 scale
[11] = test system: barnyardgrass (Echinochloa crus-galli); experiment: Test A postemergence, visual injury rating 0-100; format: in vivo; details: 0 to 100 scale
[12] = test system: ragweed (common ragweed, Ambrosia elatior); experiment: Test A postemergence, visual injury rating 0-100; format: in vivo; details: 0 to 100 scale
[13] = test system: wheat (Triticum aestivum); experiment: Test A postemergence, visual injury rating 0-100; format: in vivo; details: 0 to 100 scale
[14] = test system: barnyardgrass (Echinochloa crus-galli); experiment: Test A preemergence, visual injury rating 0-100 (0 no effect, 100 complete control); format: in vivo
[15] = test system: kochia (Kochia scoparia); experiment: Test A preemergence, visual injury rating 0-100; format: in vivo
[16] = test system: pigweed (Amaranthus retroflexus); experiment: Test A preemergence, visual injury rating 0-100; format: in vivo
[17] = test system: ryegrass, Italian (Italian ryegrass, Lolium multiflorum); experiment: Test A preemergence, visual injury rating 0-100; format: in vivo; details: 500 g ai/ha
[18] = test system: foxtail, giant (giant foxtail, Setaria faberii); experiment: Test A preemergence, visual injury rating 0-100; format: in vivo
[19] = test system: ragweed (common ragweed, Ambrosia elatior); experiment: Test A preemergence, visual injury rating 0-100; format: in vivo

| Compound | Ducksalad plant response rating (0 to 100 scale) [1] | Rice plant response rating (0 to 100 scale) [2] | Barnyardgrass plant response rating (0 to 100 scale) [3] | Kochia plant response rating ([4]; 125 g ai/ha) | Kochia plant response rating ([4]; 500 g ai/ha) | Corn plant response rating ([5]; 125 g ai/ha) | Corn plant response rating ([5]; 500 g ai/ha) | Galium plant response rating ([6]; 125 g ai/ha) | Galium plant response rating ([6]; 500 g ai/ha) | Blackgrass plant response rating ([7]; 125 g ai/ha) | Blackgrass plant response rating ([7]; 500 g ai/ha) | Pigweed plant response rating ([8]; 125 g ai/ha) | Pigweed plant response rating ([8]; 500 g ai/ha) | Ryegrass, Italian plant response rating ([9]; 125 g ai/ha) | Ryegrass, Italian plant response rating ([9]; 500 g ai/ha) | Foxtail, Giant plant response rating ([10]; 125 g ai/ha) | Foxtail, Giant plant response rating ([10]; 500 g ai/ha) | Barnyardgrass plant response rating ([11]; 125 g ai/ha) | Barnyardgrass plant response rating ([11]; 500 g ai/ha) | Ragweed plant response rating ([12]; 125 g ai/ha) | also measured |
| --- | --- | --- | --- | --- | --- | --- | --- | --- | --- | --- | --- | --- | --- | --- | --- | --- | --- | --- | --- | --- | --- |
| CC1=[N+]([O-])C(C(=O)Nc2cccc(F)c2F)C(c2cc(C)cc(CF)c2)C1 (racemic) [Compound 108] | 0 | 0 | 0 | 0 | 20 | 60 | 90 | 50 | 70 | 90 | 90 | 0 | 20 | 40 | 70 | 70 | 90 | 70 | 80 | 30 | Ragweed plant response rating ([12]; 500 g ai/ha): 50; Wheat plant response rating ([13]; 125 g ai/ha): 30; Wheat plant response rating ([13]; 500 g ai/ha): 70; Barnyardgrass plant response rating (0 to 100 scale) ([14]; 125 g ai/ha): 90; Barnyardgrass plant response rating (0 to 100 scale) ([14]; 500 g ai/ha): 100; Kochia plant response rating (0 to 100 scale) ([15]; 125 g ai/ha): 20; Kochia plant response rating (0 to 100 scale) ([15]; 500 g ai/ha): 90; Pigweed plant response rating (0 to 100 scale) ([16]; 125 g ai/ha): 0; Pigweed plant response rating (0 to 100 scale) ([16]; 500 g ai/ha): 70; Ryegrass, Italian plant response rating (0 to 100 scale) [17]: 90; Foxtail, Giant plant response rating (0 to 100 scale) ([18]; 125 g ai/ha): 90; Foxtail, Giant plant response rating (0 to 100 scale) ([18]; 500 g ai/ha): 100; Ragweed plant response rating (0 to 100 scale) ([19]; 125 g ai/ha): 0; Ragweed plant response rating (0 to 100 scale) ([19]; 500 g ai/ha): 70 |
| CCc1cc(CC)cc(C2CC(C)=[N+]([O-])C2C(=O)Nc2cccc(F)c2F)c1 (racemic) [Compound 109] | 0 | 0 | 0 | 0 | 0 | 80 | 90 | 20 | 20 | 80 | 90 | 0 | 0 | 70 | 80 | 80 | 90 | 50 | 80 | 0 | Ragweed plant response rating ([12]; 500 g ai/ha): 0; Wheat plant response rating ([13]; 125 g ai/ha): 20; Wheat plant response rating ([13]; 500 g ai/ha): 80; Barnyardgrass plant response rating (0 to 100 scale) ([14]; 125 g ai/ha): 90; Barnyardgrass plant response rating (0 to 100 scale) ([14]; 500 g ai/ha): 100; Kochia plant response rating (0 to 100 scale) ([15]; 125 g ai/ha): 0; Kochia plant response rating (0 to 100 scale) ([15]; 500 g ai/ha): 50; Pigweed plant response rating (0 to 100 scale) ([16]; 125 g ai/ha): 0; Pigweed plant response rating (0 to 100 scale) ([16]; 500 g ai/ha): 0; Ryegrass, Italian plant response rating (0 to 100 scale) [17]: 100; Foxtail, Giant plant response rating (0 to 100 scale) ([18]; 125 g ai/ha): 90; Foxtail, Giant plant response rating (0 to 100 scale) ([18]; 500 g ai/ha): 90; Ragweed plant response rating (0 to 100 scale) ([19]; 125 g ai/ha): 0; Ragweed plant response rating (0 to 100 scale) ([19]; 500 g ai/ha): 30 |
| CC1=[N+]([O-])C(C(=O)Nc2cccc(F)c2F)C(c2cc(C(F)(F)F)cc(C(F)(F)F)c2)C1 (racemic) [Compound 110] | 0 | 0 | 0 | 0 | 50 | 80 | 90 | 50 | 70 | 80 | 90 | 0 | 20 | 70 | 80 | 80 | 90 | 40 | 90 | 0 | Ragweed plant response rating ([12]; 500 g ai/ha): 70; Wheat plant response rating ([13]; 125 g ai/ha): 50; Wheat plant response rating ([13]; 500 g ai/ha): 80; Barnyardgrass plant response rating (0 to 100 scale) ([14]; 125 g ai/ha): 90; Barnyardgrass plant response rating (0 to 100 scale) ([14]; 500 g ai/ha): 90; Kochia plant response rating (0 to 100 scale) ([15]; 125 g ai/ha): 0; Kochia plant response rating (0 to 100 scale) ([15]; 500 g ai/ha): 20; Pigweed plant response rating (0 to 100 scale) ([16]; 125 g ai/ha): 0; Pigweed plant response rating (0 to 100 scale) ([16]; 500 g ai/ha): 60; Ryegrass, Italian plant response rating (0 to 100 scale) [17]: 90; Foxtail, Giant plant response rating (0 to 100 scale) ([18]; 125 g ai/ha): 90; Foxtail, Giant plant response rating (0 to 100 scale) ([18]; 500 g ai/ha): 90; Ragweed plant response rating (0 to 100 scale) ([19]; 125 g ai/ha): 50; Ragweed plant response rating (0 to 100 scale) ([19]; 500 g ai/ha): 80 |
| CC1=[N+]([O-])C(C(=O)Nc2cccc(F)c2F)C(c2cc(C)c(F)c(C)c2)C1 (racemic) [Compound 111] | 0 | 0 | 0 | 0 | 0 | 70 | 90 | 50 | 70 | 80 | 80 | 0 | 20 | 40 | 80 | 40 | 90 | 70 | 90 | 30 | Ragweed plant response rating ([12]; 500 g ai/ha): 70; Wheat plant response rating ([13]; 125 g ai/ha): 50; Wheat plant response rating ([13]; 500 g ai/ha): 70; Barnyardgrass plant response rating (0 to 100 scale) ([14]; 125 g ai/ha): 90; Barnyardgrass plant response rating (0 to 100 scale) ([14]; 500 g ai/ha): 90; Kochia plant response rating (0 to 100 scale) ([15]; 125 g ai/ha): 0; Kochia plant response rating (0 to 100 scale) ([15]; 500 g ai/ha): 90; Pigweed plant response rating (0 to 100 scale) ([16]; 125 g ai/ha): 20; Pigweed plant response rating (0 to 100 scale) ([16]; 500 g ai/ha): 60; Ryegrass, Italian plant response rating (0 to 100 scale) [17]: 90; Foxtail, Giant plant response rating (0 to 100 scale) ([18]; 125 g ai/ha): 90; Foxtail, Giant plant response rating (0 to 100 scale) ([18]; 500 g ai/ha): 90; Ragweed plant response rating (0 to 100 scale) ([19]; 125 g ai/ha): 0; Ragweed plant response rating (0 to 100 scale) ([19]; 500 g ai/ha): 90 |
